Reference: PubChem BioAssay (NCI)
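All cell lines were grown in 96-well plates and treated with compound for 48 hours. Abbreviation: GI50, concentration required for 50% inhibition of growth. TGI: total growth inhibition.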

How the values were obtained:
Assay in all cases: inhibition of tumour cell growth, NCI panel, 48 h
HL-60(TB) leukemia = system: HL-60(TB) leukemia
SK-OV-3 ovarian = system: SK-OV-3 ovarian
EKVX NSCLC = system: EKVX NSCLC
PC-3 prostate = system: PC-3 prostate
OVCAR-8 ovarian = system: OVCAR-8 ovarian
SNB-75 CNS = system: SNB-75 CNS
786-0 renal = system: 786-0 renal
CAKI-1 renal = system: CAKI-1 renal
HOP-62 NSCLC = system: HOP-62 NSCLC
MDA-MB-231 breast = system: MDA-MB-231 breast
ACHN renal = system: ACHN renal
COLO 205 colon = system: COLO 205 colon
BT-549 breast = system: BT-549 breast
MCF7 breast = system: MCF7 breast
LOX IMVI melanoma = system: LOX IMVI melanoma
NCI/ADR-RES ovarian = system: NCI/ADR-RES ovarian
SK-MEL-2 melanoma = system: SK-MEL-2 melanoma
HCT-15 colon = system: HCT-15 colon
U251 CNS = system: U251 CNS
TK-10 renal = system: TK-10 renal
NCI-H460 lung = system: NCI-H460 lung
M14 melanoma = system: M14 melanoma
IGROV1 ovarian = system: IGROV1 ovarian
KM12 colon = system: KM12 colon
HOP-92 NSCLC = system: HOP-92 NSCLC
NCI-H226 lung = system: NCI-H226 lung
SF-539 CNS = system: SF-539 CNS
RXF 393 renal = system: RXF 393 renal
HT29 colon = system: HT29 colon
SNB-19 CNS = system: SNB-19 CNS
OVCAR-4 ovarian = system: OVCAR-4 ovarian
SW-620 colon = system: SW-620 colon
K-562 leukemia = system: K-562 leukemia
UACC-62 melanoma = system: UACC-62 melanoma
HS 578T breast = system: HS 578T breast
SF-295 CNS = system: SF-295 CNS
SK-MEL-5 melanoma = system: SK-MEL-5 melanoma
MOLT-4 leukemia = system: MOLT-4 leukemia
HCC-2998 colon = system: HCC-2998 colon
SF-268 CNS = system: SF-268 CNS
T-47D breast = system: T-47D breast
UO-31 renal = system: UO-31 renal
SK-MEL-28 melanoma = system: SK-MEL-28 melanoma
A549 NSCLC = system: A549 NSCLC
SR leukemia = system: SR leukemia
A498 renal = system: A498 renal
MALME-3M melanoma = system: MALME-3M melanoma
DU-145 prostate = system: DU-145 prostate
OVCAR-5 ovarian = system: OVCAR-5 ovarian
NCI-H522 lung = system: NCI-H522 lung
HCT-116 colon = system: HCT-116 colon
OVCAR-3 ovarian = system: OVCAR-3 ovarian
MDA-MB-435 = system: MDA-MB-435
UACC-257 melanoma = system: UACC-257 melanoma
SN12C renal = system: SN12C renal

Cc1cc2nc3c4cc(Cl)ccc4n(CC(=O)NCCN(C)C)c3nc2cc1C gave a GI50 (HL-60(TB) leukemia) of 1.91 µM, a TGI (HL-60(TB) leukemia) of 4.57 µM and a GI50 (SK-OV-3 ovarian) of 14.3 µM. For the same compound, the TGI (SK-OV-3 ovarian) was 29.1 µM, the GI50 (EKVX NSCLC) was 10.6 µM and the TGI (EKVX NSCLC) was 23.3 µM. For the same compound, the GI50 (PC-3 prostate) was 11.1 µM, the TGI (PC-3 prostate) was 71.7 µM and the GI50 (OVCAR-8 ovarian) was 1.91 µM. It also gave a TGI (OVCAR-8 ovarian) of 3.87 µM, a GI50 (SNB-75 CNS) of 13.2 µM and a TGI (SNB-75 CNS) of 26.5 µM. For the same compound, the GI50 (786-0 renal) was 1.57 µM, the TGI (786-0 renal) was 3.1 µM and the GI50 (CAKI-1 renal) was 3.46 µM. The TGI (CAKI-1 renal) was 18.1 µM, the GI50 (HOP-62 NSCLC) was 11.5 µM and the TGI (HOP-62 NSCLC) was 26.4 µM. For the same compound, the GI50 (MDA-MB-231 breast) was 2.25 µM, the TGI (MDA-MB-231 breast) was 6.58 µM and the GI50 (ACHN renal) was 1.5 µM. The TGI (ACHN renal) was 2.82 µM, the GI50 (COLO 205 colon) was 75.6 µM and the TGI (COLO 205 colon) was > 100 µM. The GI50 (BT-549 breast) was 13.6 µM, the TGI (BT-549 breast) was 26.8 µM and the GI50 (MCF7 breast) was 1.48 µM. For the same compound, the TGI (MCF7 breast) was 3.15 µM, the GI50 (LOX IMVI melanoma) was 1.19 µM and the TGI (LOX IMVI melanoma) was 2.49 µM. For the same compound, the GI50 (NCI/ADR-RES ovarian) was 5.64 µM, the TGI (NCI/ADR-RES ovarian) was 18.5 µM and the GI50 (SK-MEL-2 melanoma) was 16 µM. For the same compound, the TGI (SK-MEL-2 melanoma) was 29.8 µM, the GI50 (HCT-15 colon) was 1.86 µM and the TGI (HCT-15 colon) was 4.01 µM. For the same compound, the GI50 (U251 CNS) was 1.66 µM, the TGI (U251 CNS) was 3.1 µM and the GI50 (TK-10 renal) was 19.7 µM. It also gave a TGI (TK-10 renal) of 33.9 µM, a GI50 (NCI-H460 lung) of 1.79 µM and a TGI (NCI-H460 lung) of 3.62 µM. For the same compound, the GI50 (M14 melanoma) was 1.64 µM, the TGI (M14 melanoma) was 3.11 µM and the GI50 (IGROV1 ovarian) was 12.7 µM. For the same compound, the TGI (IGROV1 ovarian) was 26.5 µM, the GI50 (KM12 colon) was > 100 µM and the TGI (KM12 colon) was > 100 µM. It also gave a GI50 (HOP-92 NSCLC) of 2.2 µM, a TGI (HOP-92 NSCLC) of 22.8 µM and a GI50 (NCI-H226 lung) of 9.43 µM. It also gave a TGI (NCI-H226 lung) of 26.1 µM, a GI50 (SF-539 CNS) of 1.74 µM and a TGI (SF-539 CNS) of 3.21 µM. It also gave a GI50 (RXF 393 renal) of 1.67 µM, a TGI (RXF 393 renal) of 3.42 µM and a GI50 (HT29 colon) of 1.67 µM. For the same compound, the TGI (HT29 colon) was 3.18 µM, the GI50 (SNB-19 CNS) was 16.1 µM and the TGI (SNB-19 CNS) was 31.2 µM. It also gave a GI50 (OVCAR-4 ovarian) of 15.9 µM, a TGI (OVCAR-4 ovarian) of 39.2 µM and a GI50 (SW-620 colon) of 1.57 µM. The TGI (SW-620 colon) was 3.21 µM, the GI50 (K-562 leukemia) was 2.28 µM and the TGI (K-562 leukemia) was 7.36 µM. For the same compound, the GI50 (UACC-62 melanoma) was 2.14 µM, the TGI (UACC-62 melanoma) was 5.26 µM and the GI50 (HS 578T breast) was 13.5 µM. The TGI (HS 578T breast) was 35.5 µM, the GI50 (SF-295 CNS) was 16.4 µM and the TGI (SF-295 CNS) was 29.9 µM. For the same compound, the GI50 (SK-MEL-5 melanoma) was 1.77 µM, the TGI (SK-MEL-5 melanoma) was 3.37 µM and the GI50 (MOLT-4 leukemia) was 2.2 µM. For the same compound, the TGI (MOLT-4 leukemia) was 6.18 µM, the GI50 (HCC-2998 colon) was 11.7 µM and the TGI (HCC-2998 colon) was 23.9 µM. For the same compound, the GI50 (SF-268 CNS) was 13.9 µM, the TGI (SF-268 CNS) was 30.5 µM and the GI50 (T-47D breast) was > 100 µM. The TGI (T-47D breast) was > 100 µM, the GI50 (UO-31 renal) was 1.02 µM and the TGI (UO-31 renal) was 2.22 µM. It also gave a GI50 (SK-MEL-28 melanoma) of 1.74 µM, a TGI (SK-MEL-28 melanoma) of 3.15 µM and a GI50 (A549 NSCLC) of 2.02 µM. For the same compound, the TGI (A549 NSCLC) was 5.02 µM, the GI50 (SR leukemia) was 2.42 µM and the TGI (SR leukemia) was 6.64 µM. The GI50 (A498 renal) was 18 µM, the TGI (A498 renal) was 31.8 µM and the GI50 (MALME-3M melanoma) was 1.69 µM. The TGI (MALME-3M melanoma) was 3.2 µM, the GI50 (DU-145 prostate) was 13.7 µM and the TGI (DU-145 prostate) was 26.6 µM. It also gave a GI50 (OVCAR-5 ovarian) of 2.04 µM, a TGI (OVCAR-5 ovarian) of 4.68 µM and a GI50 (NCI-H522 lung) of 12.7 µM. The TGI (NCI-H522 lung) was 25.9 µM, the GI50 (HCT-116 colon) was 1.73 µM and the TGI (HCT-116 colon) was 3.29 µM. It also gave a GI50 (OVCAR-3 ovarian) of 14.6 µM, a TGI (OVCAR-3 ovarian) of 27.8 µM and a GI50 (MDA-MB-435) of 1.9 µM. It also gave a TGI (MDA-MB-435) of 3.77 µM, a GI50 (UACC-257 melanoma) of 1.87 µM and a TGI (UACC-257 melanoma) of 3.97 µM. It also gave a GI50 (SN12C renal) of 15.2 µM and a TGI (SN12C renal) of 29.4 µM.
